Values quoted from earlier work as cited in patent US9763924B2, “Aminoester derivatives” (CHIESI FARMACEUTICI S.P.A., priority 2014, dated 2017).

Test system: COPD patients
[1] = patients with severe disease who have frequent exacerbations and mucus hypersecretion

SMILES: O=C(Nc1c(Cl)cncc1Cl)c1ccc(OC(F)F)c(OCC2CC2)c1 [roflumilast]
- reduction of the numbers of neutrophils in sputum (COPD patients, oral, given over 4 weeks): 36%
- improvement of FEV 1 [1]: approximately 50 mL
- reduction of exacerbation [1]: about 15%
